Each structure is given as a SMILES string.

The target of one test is T1, Caspase 1 (Homo sapiens, UniProt P29466).
T1 construct: Caspase 1 activity within the PBMCs; endogenous in cells; host or cells: primary PBMCs from LSD patients
T1 sequence (P29466 120-297 limits assumed): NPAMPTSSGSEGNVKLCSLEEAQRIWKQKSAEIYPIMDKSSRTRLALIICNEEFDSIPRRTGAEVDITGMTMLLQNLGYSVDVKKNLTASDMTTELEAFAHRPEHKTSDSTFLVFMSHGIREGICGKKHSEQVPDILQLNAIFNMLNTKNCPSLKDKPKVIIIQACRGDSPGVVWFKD
T1 sequence (P29466 317-404 limits assumed): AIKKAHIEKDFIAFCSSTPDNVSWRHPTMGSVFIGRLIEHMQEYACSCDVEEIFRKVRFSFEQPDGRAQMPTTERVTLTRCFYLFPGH
Put plainly: Caspase-Glo 1 inflammasome assay in PBMCs from LSD patients. The test is classed as cell-based. To be noted: 1 μM, 6 hr, vs untreated PBMCs. The procedure:
PBMCs are extracted from 3-5 ml peripheral blood using Ficoll-Paque (GE health care). 2-4 ml of whole blood is diluted 1:2 using Phosphate buffered saline (PBS) containing 2% fetal bovine serum (FBS) and overlayed onto Ficoll solution in 15 ml leucosep tube. The tubes are centrifuged at 2000 g for 10 minutes with no brakes. The layer containing PBMCs is transferred into a fresh 15 ml tube and washed with PBS+2% FBS. The cells are then resuspended in RPMI+10% FBS. The cells were then counted using heniocytometer and plated into 96 well plates and set at 37° C. incubator with 5% CO2.
The pan-caspase inhibitor, Emricasan (Sigma-Aldrich, Inc., St. Louis, MO, USA), was added to the PBMCs in 96-well plates to a final concentration of 1 μM. After 6 hr of Emricasan treatment, the cells were divided into two groups and used for 1) measurement of Caspase 1 activity within the PBMCs using Caspase-Glo 1 inflammasome assay (Promega, Madison, WI, USA), and 2) the supernatant was collected after centrifuging at 3000 rpm for 5 min to perform ELISA assays for cytokines: IL-1 beta and IL-18 as well as macrophage activation markers: Chitotriosidase and CCL18. […]
(§1) Caspase-1 mediated inflammasome cleaves pro-IL-1 beta and pro-IL-18 into active forms II-1 beta and IL-18 which are secreted from the cells. […] Relative decrease for each sample was calculated as relative to untreated PBMCs (FIG. 3A and 3B). […]

A further test concerns CCL18. The experiment in a line: CCL18 ELISA of PBMC cell culture supernatant. The test is classed as cell-based, human. The conditions noted are these: PBMCs from LSD patients, 1 μM, 6 hr, with vs without treatment.
For another test, the system named is Chitotriosidase. Put plainly: Chitotriosidase assay (4-Methylumbelliferone chitotrioside substrate) of PBMC cell culture supernatant. It counts as cell-based, human. The conditions noted are these: PBMCs from LSD patients, 1 μM, 6 hr, with vs without treatment.
The next test deals with IL-18. The experiment in a line: IL-18 ELISA of PBMC cell culture supernatant. It counts as cell-based, human. The conditions noted are these: PBMCs from LSD patients, 1 uM, 6 hr, relative to untreated PBMCs. The procedure:
(§2) PBMCs are extracted from 3-5 ml peripheral blood using Ficoll-Paque (GE health care). 2-4 ml of whole blood is diluted 1:2 using Phosphate buffered saline (PBS) containing 2% fetal bovine serum (FBS) and overlayed onto Ficoll solution in 15 ml leucosep tube. The tubes are centrifuged at 2000 g for 10 minutes with no brakes. The layer containing PBMCs is transferred into a fresh 15 ml tube and washed with PBS+2% FBS. The cells are then resuspended in RPMI+10% FBS. The cells were then counted using heniocytometer and plated into 96 well plates and set at 37° C. incubator with 5% CO2. […]
(§3) Caspase-1, IL-1 beta and IL-18 were quantified as a measure of capase-1 activity. CCL18 and chitotriosidase were measured as to indicate macrophage activation and reflect clinical outcomes. ELISAs were performed as per manufacturer's protocols to quantify the following cytokines: 1) Caspase 1 (Therrnofisher Scientific, Waltham, MA, USA), 2) IL-1 beta, 3) IL-18 (Abcam, Cambridge, MA, USA), 4) CCL-18 cytokines-1 (Themofisher scientific, Waltham, MA, USA). […]
as §1
Background: In an ELISA, binding on a coated surface is turned into a signal by an enzyme label.

A further test has as its system IL-1 beta. The experiment in a line: IL-1 beta ELISA of PBMC cell culture supernatant. To be noted: PBMCs from LSD patients, 1 uM, 6 hr, relative to untreated PBMCs. It counts as cell-based, human. The procedure:
as §2, §3, §1

Take `C[C@H](NC(=O)C(=O)Nc1ccccc1C(C)(C)C)C(=O)N[C@@H](CC(=O)O)C(=O)COc1c(F)c(F)cc(F)c1F` [Emricasan, (3S)-3-({N-[{[2-(2-Methyl-2-propanyl)phenyl]amino}(oxo)acetyl]alanyl}amino)-4-oxo-5-(2,3,5,6-tetrafluorophenoxy) pentanoic acid]: the “Caspase 1 activity within the PBMCs” value at Caspase 1 is reported as “reduced”. In addition, the “production of CCL18 (macrophage activation biomarker) in cell culture medium” value with CCL18 is recorded as “significant decrease”. The “production of chitotriosidase (macrophage activation biomarker) in cell culture medium” value in the test on Chitotriosidase is recorded as “significant decrease”. Also, the “secreted IL-18 in the cell culture supernatant” value in the test with IL-18 was “significant decrease”. Besides, in the test on IL-1 beta, the “secreted IL-1 beta in the cell culture supernatant” value is recorded as “significant decrease”.

The values are drawn from patent US20230404972A1, “INHIBITION OF CASPASE PATHWAY AS A TREATMENT FOR LYSOSOMAL STORAGE DISORDERS” (Lysosomal and Rare Disorders Research and Treatment Center, …, priority 2020, published 2023).
